Measured values taken from US8039634B2, “Oxazole hydroxamic acid derivatives and use thereof” (SK Holdings Co., Ltd., priority 2005, dated 2011).
≈ marks a conversion by molar mass, not a printed value. Like-named read-outs stand apart in the source and are kept apart here.

Legend:
HCT116 = experiment: In vitro toxicity / growth inhibition (CellTiter-Glo), HCT116; type: cell-based; details: Homo sapiens, HCT-116; HCT116, 48 hr
Protocol: (§1) In order to determine in vitro toxicity of a compound in accordance with the present invention, 18 species of human cancer cell lines (HeLa, cervical cancer cell line; HCT116, SW480, SW620, RKO, colon cancer cell lines; H460, H1299, A549, lung cancer cell lines; MCF7, MDA-MB231, MDA-MB453, breast cancer cell lines; Jurkat, K562, THP1, Ramos, U937, blood cancer cell lines; PC3, DU145, prostate cancer cell lines) were used. Cell lines were cultured in RPMI 1640 culture medium containing penicillin/streptomycin (100 units/mL) and heat-inactivated 5% fetal bovine serum (FBS) under standard culture conditions ([…], 5% CO2, and 100% relative humidity). Thereafter, single cell suspension was obtained via trypsin treatment and pipetting. The suspension was diluted with the same medium such that a cell density is in a range of 8×10^3 to 1.5×10^4 cells/well, and was transferred to a 96-well microtiter plate. After culturing for 24 hours, cell cultures were treated with respective compounds of Examples at various concentrations. […] The above evaluation was carried out according to the methods given in a manufacture's manual. GI50 in Table 1 below refers to a concentration that compounds of Examples cause 50% growth inhibition of various cancer cells.

ICR-BG mice = details: mouse, in vivo
Protocol: In order to confirm acute toxicity in vivo, a Rotarod Neurotoxicity test was carried out on ICR-BG mice (N=8). Animals were administered at a dose of 300 mg/kg. Animals received training at 7 rpm for 10 min twice, and 1 hour later the compound of Example 1 was administered intraperitoneally (ip) to 8 mice. Thereafter, for one minute at the intervals of every 30 min, 1 hour, 2 hours and 4 hours, times that animals fell from the rotarod and death of animal post-drug administration or affliction-related responses were continuously observed. When mice fell from the rotarod more than thrice in one minute, it was regarded as fall off.

HeLa = experiment: In vitro toxicity / growth inhibition (CellTiter-Glo), HeLa; type: cell-based; details: Homo sapiens, 48 hr
Protocol: as §1

Solubility = type: physicochemical
Raw cell = experiment: Inhibition of LPS-induced NO increases; type: cell-based, Mouse; details: 5 μM compound
Protocol: As one of the methods to confirm anti-inflammatory responses, inhibition of increases in nitric oxide (NO) due to lipopolysaccharide (LPS) was carried out. Mouse cell line (Raw cell) was cultured in RPMI 1640 culture medium containing penicillin/streptomycin (100 units/mL) and heat-inactivated 5% fetal bovine serum (FBS) under standard culture conditions ([…], 5% CO2, 37° C., and 100% relative humidity). Test compounds were dissolved in dimethylsulfoxide (DMSO) and were used as a final concentration of 1 to 40 μM. Cells were proliferated to a cell density of 5×10^3 to 2×10^4 cells on a 24-well plate and were treated with the respective compounds (equal amounts of 5 μM) 1 hour prior to treatment with LPS ([…]). The thus-treated cells were cultured for 18 hours, and thereafter the amounts of NO thus produced were measured using Griess Reagent. Measurement was confirmed using an absorption spectrophotometer at 540 nm. The value was expressed as percentage (%) relative to a control in which LPS alone was treated.

MCF7 = experiment: In vitro toxicity / growth inhibition (CellTiter-Glo), MCF7; type: cell-based; details: Homo sapiens; MCF7, 48 hr
Protocol: as §1

H460 = experiment: In vitro toxicity / growth inhibition (CellTiter-Glo), H460; type: cell-based; details: Homo sapiens, NCI-H460; H460, 48 hr
Protocol: as §1

HDAC = experiment: Inhibition of HDAC activity (fluorometric, HeLa nuclear extract); type: biochemical, human; details: 30 min room temperature
Protocol: In order to determine inhibitory activity of a compound in accordance with the present invention on HDAC, evaluation was carried out using an aminocoumarin derivative of ω-acetylated lysine as a substrate for an enzyme. As an enzyme source, a nuclear extract obtained from human cervical cancer cell line HeLa cells was used. The above evaluation was carried out with modification of a method based on the details described in Weegener et al. (2003) Analytical Biochemistry, 321, 203-208. That is, […], […] of nuclear extract and a compound of Example 1 at different concentrations were added and maintained at room temperature for 30 min. Trypsin (10 mg/ml) and Trichostatin A (final concentration: […]) were added to the resulting mixture which was reacted at the same temperature for 20 min, thereby terminating the reaction. The enzyme activity-inhibitory concentration of the compound added was determined using a fluorometer. As a control compound, suberoylanilide hydroxamic acid (SAHA) was used. IC50 in Table 1 below refers to a concentration of the compound that leads to a 50% decrease in activity of HDAC.

Histone Deacetylase = experiment: Histone H3/H4 acetylation in HCT116 cells (Western blot); type: cell-based, human; details: 1 μM, HCT116, 0, 2 and 5 hours
Protocol: Human color cancer cell line (HCT116) was cultured in RPMI 1640 culture medium containing penicillin/streptomycin (100 units/mL) and heat-inactivated 5% fetal bovine serum (FBS) under standard culture conditions ([…], 5% CO2, 37° C., and 100% relative humidity). Test compounds were dissolved in dimethylsulfoxide (DMSO) and were used as a final concentration of 1 μM. Cells (3×10^7) were cultured in the presence of the test compound (1 μM, Example 1) and absence thereof for 0, 2 and 5 hours, respectively. The cell suspension, which was obtained via trypsin treatment and pipetting, was centrifuged at 200×g for 10 min to form a pellet. The thus-formed pellet was washed twice with 10-fold volume of saline and re-suspended in a buffer [[…], pH 7.9, 1.5 mM MgCl2, 10 mM KCl, 0.5 mM DTT, 1.5 mM PMSF]. Thereafter, hydrochloric acid was added in a final concentration of 0.2 M to the resulting suspension which was then stored on ice for 30 min. The final suspension was centrifuged at 11,000 rpm and 4° C. for 10 min. […]
Dialyzed proteins were subjected to gel electrophoresis using 16% protein gel and were probed with acetylated histone H3 (Ac-H3) or H4 (Ac-H4) antibodies (Upstate Biotechnology Inc). […] In order to compare the equal amount of proteins, protein quantification and protein gel were run in parallel, followed by coumassie blue staining.

COc1ccc(-c2oc(CCCCCCC(=O)NO)nc2-c2ccccc2)cc1 [Example 1, 7-(5-(4-methoxyphenyl)-4-phenyloxazol-2-yl)heptanoic acid hydroxyamide]
GI50 (HCT116): 3000 nM | Mice fallen off rotarod (ICR-BG mice; 0.5 h): 1/8(Fallen off) | Mice fallen off rotarod (ICR-BG mice; 1 h): 1/8 | Mice fallen off rotarod (ICR-BG mice; 2 h): 0/8 | Mice fallen off rotarod (ICR-BG mice; 4 h): 0/8 | GI50 (HeLa): 1400 nM | solubility (Solubility): 200 µg/mL (≈ 507 µM) | NO (Raw cell; LPS, 18 hours, Griess Reagent): 63.7 μM/L | activity at 5 µM (Raw cell; Mus musculus, 18 h, relative to LPS alone control): 57.9% | GI50 (MCF7): 700 nM | GI50 (H460): 3.63 µM | IC50 (HDAC): 1.07 nM | Acetylation of histone H3 (Ac-H3) and H4 (Ac-H4) (Histone Deacetylase): acetylated over time was confirmed via Western blot analysis
